# According to patent publication US6737383B1, “Herbicidal oxadiazolidines” (priority 1999, dated 2004):
# Tests used:
# [1] = system: giant foxtail; assay: Test B pre/postemergence giant foxtail; assay type: in vivo, Setaria faberii
# Outline: (§1)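 Test chemicals in a non-phytotoxic solvent mixture with surfactant were sprayed preemergence onto planted seeds and postemergence onto plants 2 to 18 cm tall (1- to 4-leaf stage). After twelve to sixteen days in a greenhouse, injury was visually rated against untreated controls from 0 (no effect) to 10 (complete control).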
# [2] = system: morningglory; assay: Test B pre/postemergence morningglory; assay type: in vivo, Ipomoea hederacea
# Outline: as §1
# [3] = system: pigweed; assay: Test B pre/postemergence pigweed; assay type: in vivo, Amaranthus retroflexus
# Outline: as §1
# [4] = Postemergence, Rate 250 g/ha, scale 0 to 10
# [5] = Postemergence, Rate 500 g/ha, scale of 0 to 10 where 0 is no effect and 10 is complete control
# [6] = Preemergence, Rate 62 g/ha, scale of 0 to 10 where 0 is no effect and 10 is complete control
# [7] = Preemergence, Rate 125 g/ha, scale of 0 to 10 where 0 is no effect and 10 is complete control
# [8] = Preemergence, Rate 250 g/ha, scale 0 to 10, 0 is no effect, 10 is complete control
# [9] = Preemergence, Rate 500 g/ha, scale 0 to 10, 0 is no effect, 10 is complete control
# [10] = Rate 62 g/ha, Postemergence, scale 0 to 10, 0 no effect, 10 complete control
# [11] = Rate 125 g/ha, Postemergence, scale 0 to 10, 0 is no effect, 10 is complete control
# [12] = Postemergence, Rate 125 g/ha, scale 0 to 10, 0 is no effect, 10 is complete control
# [13] = Preemergence, Rate 250 g/ha, scale of 0 to 10 where 0 is no effect and 10 is complete control
# [14] = Preemergence, Rate 500 g/ha, scale of 0 to 10 where 0 is no effect and 10 is complete control
# [15] = Rate 500 g/ha, Postemergence, scale 0 to 10, 0 no effect, 10 complete control
# [16] = Preemergence, Rate 62 g/ha, scale 0 to 10 (0 no effect, 10 complete control)
# [17] = Preemergence, Rate 125 g/ha, scale 0 to 10, 0 is no effect, 10 is complete control
# [18] = Rate 125 g/ha, Postemergence, scale of 0 to 10 where 0 is no effect and 10 is complete control
# [19] = Rate 250 g/ha, Postemergence, scale of 0 to 10 where 0 is no effect and 10 is complete control
compound,measurement,setting,value
COC(C)n1c(=O)on(C(=O)N(c2ccc(F)cc2)C(C)C)c1=O (stereo not drawn) [Compound 439],Giant foxtail plant response rating,[1]; [4],0
same,Giant foxtail plant response rating,[1]; [5],0
same,"Plant response rating, Giant foxtail",[1]; [6],0
same,"Plant response rating, Giant foxtail",[1]; [7],0
same,Giant foxtail plant response rating,[1]; [8],0
same,Giant foxtail plant response rating,[1]; [9],0
same,Giant foxtail plant response rating,[1]; [10],0
same,Giant foxtail plant response rating,[1]; [11],0
same,Morningglory plant response rating,[2]; [4],0
same,Morningglory plant response rating,[2]; [5],0
same,"Plant response rating, Morningglory",[2]; [6],0
same,"Plant response rating, Morningglory",[2]; [7],0
same,Morningglory plant response rating,[2]; [8],0
same,Morningglory plant response rating,[2]; [9],0
same,Morningglory plant response rating,[2]; [10],0
same,Morningglory plant response rating,[2]; [11],0
same,Redroot pigweed plant response rating,[3]; [4],0
same,Redroot pigweed plant response rating,[3]; [5],0
same,"Plant response rating, Redroot pigweed",[3]; [6],0
same,"Plant response rating, Redroot pigweed",[3]; [7],0
same,Redroot pigweed plant response rating,[3]; [8],0
same,Redroot pigweed plant response rating,[3]; [9],0
same,Redroot pigweed plant response rating,[3]; [10],0
same,Redroot pigweed plant response rating,[3]; [11],0
CC(C)N(C(=O)n1oc(=O)n(-c2ccc3ccccc3c2)c1=O)c1ccccc1 [Compound 332],"Plant response rating, Giant foxtail",[1]; [12],0
same,Giant foxtail plant response rating,[1]; [6],0
same,Giant foxtail plant response rating (0 to 10 scale),"[1]; Preemergence, Rate 125 g/ha",1
same,Giant foxtail plant response rating,[1]; [13],4
same,Giant foxtail plant response rating,[1]; [14],7
same,Giant foxtail plant response rating,[1]; [10],0
same,"Plant response rating, Giant foxtail",[1]; [15],0
same,"Plant response rating, Morningglory",[2]; [12],0
same,Morningglory plant response rating,[2]; [6],0
same,Morningglory plant response rating (0 to 10 scale),"[2]; Preemergence, Rate 125 g/ha",0
same,Morningglory plant response rating,[2]; [13],0
same,Morningglory plant response rating,[2]; [14],0
same,Morningglory plant response rating,[2]; [10],0
same,"Plant response rating, Morningglory",[2]; [15],0
same,"Plant response rating, Redroot pigweed",[3]; [12],1
same,Redroot pigweed plant response rating,[3]; [6],0
same,Redroot pigweed plant response rating (0 to 10 scale),"[3]; Preemergence, Rate 125 g/ha",0
same,Redroot pigweed plant response rating,[3]; [13],0
same,Redroot pigweed plant response rating,[3]; [14],3
same,Redroot pigweed plant response rating,[3]; [10],0
same,"Plant response rating, Redroot pigweed",[3]; [15],4
CC(C)N(C(=O)n1oc(=O)n(CCC#N)c1=O)c1ccc(F)cc1F [Compound 433],Giant foxtail plant response rating,[1]; [4],6
same,Giant foxtail plant response rating,[1]; [5],8
same,"Plant response rating, Giant foxtail",[1]; [16],10
same,"Plant response rating, Giant foxtail",[1]; [7],10
same,Giant foxtail plant response rating,[1]; [8],10
same,Giant foxtail plant response rating,[1]; [9],10
same,Giant foxtail plant response rating,"[1]; Rate 62 g/ha, Postemergence, scale of 0 to 10 where 0 is no effect and 10 is complete control",4
same,Giant foxtail plant response rating,[1]; [11],4
same,Morningglory plant response rating,[2]; [4],4
same,Morningglory plant response rating,[2]; [5],7
same,"Plant response rating, Morningglory",[2]; [16],0
same,"Plant response rating, Morningglory",[2]; [7],0
same,Morningglory plant response rating,[2]; [8],2
same,Morningglory plant response rating,[2]; [9],3
same,Morningglory plant response rating,[2]; [11],2
same,Redroot pigweed plant response rating,[3]; [4],2
same,Redroot pigweed plant response rating,[3]; [5],3
same,"Plant response rating, Redroot pigweed",[3]; [16],0
same,"Plant response rating, Redroot pigweed",[3]; [7],4
same,Redroot pigweed plant response rating,[3]; [8],7
same,Redroot pigweed plant response rating,[3]; [9],10
same,Redroot pigweed plant response rating,[3]; [11],0
CC(C)N(C(=O)n1oc(=O)n(CC#N)c1=O)c1ccc(Cl)cc1 [Compound 476],Giant foxtail plant response rating,[1]; [4],0
same,Giant foxtail plant response rating,[1]; [5],0
same,"Plant response rating, Giant foxtail",[1]; [6],0
same,"Plant response rating, Giant foxtail",[1]; [7],0
same,Giant foxtail plant response rating,[1]; [8],0
same,Giant foxtail plant response rating,[1]; [9],0
same,Giant foxtail plant response rating,[1]; [10],0
same,Giant foxtail plant response rating,[1]; [11],0
same,Morningglory plant response rating,[2]; [4],0
same,"Plant response rating, Morningglory",[2]; [6],0
same,"Plant response rating, Morningglory",[2]; [7],0
same,Morningglory plant response rating,[2]; [8],0
same,Morningglory plant response rating,[2]; [9],0
same,Morningglory plant response rating,[2]; [10],0
same,Morningglory plant response rating,[2]; [11],0
same,Redroot pigweed plant response rating,[3]; [4],0
same,"Plant response rating, Redroot pigweed",[3]; [6],0
same,"Plant response rating, Redroot pigweed",[3]; [7],0
same,Redroot pigweed plant response rating,[3]; [8],2
same,Redroot pigweed plant response rating,[3]; [9],4
same,Redroot pigweed plant response rating,[3]; [10],0
same,Redroot pigweed plant response rating,[3]; [11],0
CC(C)N(C(=O)n1oc(=O)n(Cc2cnc(Cl)s2)c1=O)c1ccc(F)cc1 [Compound 482],Giant foxtail plant response rating,[1]; [12],0
same,Giant foxtail plant response rating,[1]; [4],0
same,Giant foxtail plant response rating,[1]; [5],2
same,"Plant response rating, Giant foxtail",[1]; [6],1
same,Giant foxtail plant response rating,[1]; [17],6
same,Giant foxtail plant response rating,[1]; [8],8
same,Giant foxtail plant response rating,[1]; [9],9
same,Giant foxtail plant response rating,[1]; [10],0
same,Morningglory plant response rating,[2]; [12],7
same,Morningglory plant response rating,[2]; [4],8
same,"Plant response rating, Morningglory",[2]; [6],0
same,Morningglory plant response rating,[2]; [17],0
same,Morningglory plant response rating,[2]; [8],0
same,Morningglory plant response rating,[2]; [9],0
same,Morningglory plant response rating,[2]; [10],5
same,Redroot pigweed plant response rating,[3]; [12],0
same,Redroot pigweed plant response rating,[3]; [4],2
same,"Plant response rating, Redroot pigweed",[3]; [6],0
same,Redroot pigweed plant response rating,[3]; [17],0
same,Redroot pigweed plant response rating,[3]; [8],0
same,Redroot pigweed plant response rating,[3]; [9],0
same,Redroot pigweed plant response rating,[3]; [10],0
CC(C)N(C(=O)n1oc(=O)n(CC2CCCC2)c1=O)c1ccc(F)cc1 [Compound 322],Giant foxtail plant response rating,[1]; [6],6
same,Giant foxtail plant response rating (0 to 10 scale),"[1]; Preemergence, Rate 125 g/ha",9
same,Giant foxtail plant response rating,[1]; [13],9
same,Giant foxtail plant response rating,[1]; [14],10
same,Giant foxtail plant response rating,[1]; [10],0
same,Giant foxtail plant response rating,[1]; [18],0
same,"Plant response rating, Giant foxtail",[1]; [19],1
same,"Plant response rating, Giant foxtail",[1]; [15],4
same,Morningglory plant response rating,[2]; [6],0
same,Morningglory plant response rating (0 to 10 scale),"[2]; Preemergence, Rate 125 g/ha",0
same,Morningglory plant response rating,[2]; [13],0
same,Morningglory plant response rating,[2]; [14],0
same,Morningglory plant response rating,[2]; [10],4
same,Morningglory plant response rating,[2]; [18],4
same,"Plant response rating, Morningglory",[2]; [19],7
same,"Plant response rating, Morningglory",[2]; [15],8
same,Redroot pigweed plant response rating,[3]; [6],0
same,Redroot pigweed plant response rating (0 to 10 scale),"[3]; Preemergence, Rate 125 g/ha",6
same,Redroot pigweed plant response rating,[3]; [13],8
same,Redroot pigweed plant response rating,[3]; [14],8
same,Redroot pigweed plant response rating,[3]; [10],2
same,Redroot pigweed plant response rating,[3]; [18],3
same,"Plant response rating, Redroot pigweed",[3]; [19],3
same,"Plant response rating, Redroot pigweed",[3]; [15],6
